We go through one compound from patent publication US12691143B2, “Method for treating cancer” (priority 2020, dated 2026).

“Also recorded” adds a separate entry of the source.

The test system of data set [1] is variety of tumor types, biomarker-unselected populations. As to conditions: single agent, Phase I/II clinical trials; cited from earlier work.
Data set [2] concerns KE1 xenografts (NER-deficient). The data set is described as follows: Xenograft study. It is filed as in vivo, mice. Here is the method: (§1) Six week old female athymic nude mice, NU/J (Stock No: 002019) were purchased from Jackson Laboratory (Bar Harbor, ME) and housed at the Dana-Farber Cancer Institute Animal Resources Facility. All animal experiments were performed in accordance with an IACUC-approved protocol. At 7-10 weeks of age, mice were anesthetized with isoflurane and subcutaneously injected on the left flank with 3 million KE1 or 1 million KU19-19 cells mixed 1:1 with Matrigel (BD Biosciences; Mississauga, ON) in PBS. Tumor size was measured with a digital caliper twice weekly and calculated using the formula: (L×W^2)×½. Drug treatments were administered when the average tumor volume reached a minimum of 100 mm^3. Irofulven was prepared in PBS to a stock concentration of 200 μg/ml and was delivered intraperitoneally (IP) twice weekly at doses of 250 μg/kg, 500 μg/kg or 1 mg/kg for a total of 5 injections or until the tumor reached a pre-specified protocol endpoint. Control mice were injected with PBS alone. At the end of the experiment, mice were sacrificed and tumors were excised for tumor weight measurements and imaging.
(§2) Six week old female athymic nude mice, NU/J (Stock No: 002019) were purchased from Jackson Laboratory (Bar Harbor, ME) and housed at the Dana-Farber Cancer Institute Animal Resources Facility. All animal experiments were performed in accordance with an IACUC-approved protocol. At 7-10 weeks of age, mice were anesthetized with isoflurane and subcutaneously injected on the left flank with 3 million KE1 or 1 million KU19-19 cells mixed 1:1 with Matrigel (BD Biosciences; Mississauga, ON) in PBS. Tumor size was measured with a digital caliper twice weekly and calculated using the formula:
(§3) [formula] Drug treatments were administered when the average tumor volume reached a minimum of 100 mm^3. Irofulven was prepared in PBS to a stock concentration of 200 μg/ml and was delivered intraperitoneally (IP) twice weekly at doses of 250 μg/kg, 500 μg/kg or 1 mg/kg for a total of 5 injections or until the tumor reached a pre-specified protocol endpoint. Control mice were injected with PBS alone. At the end of the experiment, mice were sacrificed and tumors were excised for tumor weight measurements and imaging.

In data set [3] the test system is KU19-19 xenografts (NER-proficient). The experiment in a line: Xenograft study. In kind it is in vivo, mice. The settings on record: 1 mg/kg irofulven. Here is the method: as §1, §2, §3
Data set [4] relates to KE1 bladder cancer cell line (ERCC2-mutated derivative of KU19-19, NER-deficient). The data set is described as follows: In vitro drug sensitivity assay (CellTiter-Glo). In kind it is cell-based. As to conditions: NER-deficient KE1, compared with isogenic KU19-19; 48 to 72 hours. The text has this: Bladder cancer cell lines were purchased from ATCC. The KE1 bladder cancer cell line is a derivative of KU19-19 in which an ERCC2 T484 mutation has been introduced by CRISPR/Cas9 gene editing as previously described (6). The MDA-MB-468 breast cancer cell line and its ERCC4-complemented derivative have been previously described (35). Small interfering RNAs (siRNAs) targeting specific NER genes as well as a non-targeting siRNA (siNTC) were purchased from Integrated DNA Technologies Inc. (Coralville, IA, USA; see Table 9 for sequences). Cells were seeded in 6-well plates and grown to 50% confluency. A transfection mixture containing siRNA diluted to a final concentration of 30 nM in Opti-MEM media containing Lipofectamine 3000 (Life Technologies; Carlsbad, CA) was then added to cells. After 48 hours, cells were trypsinized and re-aliquoted to separate wells and transfected with 15 nM siRNA for 24 hours immediately prior to viability assays performed as described below. […]
Cells were seeded in either 96-well (5,000 cells/well) or 24-well (20,000 cells/well) plates. […] Plates were scanned using a luminescence microplate reader (BioTek). […]

Data set [5] deals with cisplatin-resistant MDA-MB-468 cell line. The data set is described as follows: In vitro drug sensitivity assay in cisplatin-resistant derivative. As to conditions: cisplatin-resistant derivative of NER-deficient MDA-MB-468. In kind it is cell-based. Here is the method: Cells were seeded in either 96-well (5,000 cells/well) or 24-well (20,000 cells/well) plates. The following day, irofulven and cisplatin stock solutions were serially diluted in media and added to cells. After 48 to 72 hours, media was removed and CellTiter-Glo® reagent (Promega; Madison, WI) was added. Plates were scanned using a luminescence microplate reader (BioTek). Survival at each drug concentration was plotted as a percentage of survival in drug-free media with error bars representing the standard deviation of at least three experiments.
Platinum-based chemotherapy is a first-line treatment for numerous solid malignancies including bladder cancer, but platinum resistance frequently occurs and represents a challenging clinical problem. Although a variety of platinum resistance mechanisms have been characterized, restoration or upregulation of DNA repair is a common mechanism of resistance, particularly in HR-deficient breast and ovarian tumors^33. Mechanisms of platinum resistance in NER deficient tumors have not been characterized, and we wished to determine if acquired resistance to cisplatin would confer cross-resistance to irofulven through restoration of NER. To test this, we derived cisplatin resistance in the NER-deficient MDA-MB-468 cell line by gradual exposure to escalating doses of cisplatin (Methods).

Turning to `CC1=C(CO)C2=C(C)C3(CC3)[C@@](C)(O)C(=O)C2=C1` [irofulven], in data set [1], the tolerability entry is on record as “well-tolerated”. For the same compound, the tumor dose response entry in data set [2] (250 μg/kg, 500 μg/kg or 1 mg/kg IP twice weekly) was “strong irofulven dose response”. Besides, in data set [2] (1 mg/kg IP twice weekly, total of five doses), the “tumor response (tumor volume)” value was “near complete tumor regression”. Further, the xenograft weights result in data set [2] (irofulven-treated vs untreated mice) is “significantly lower”. Also, the tumor response entry in data set [3] is reported as “no response; also recorded: did not show response”. For the same compound, the “drug sensitivity (survival as percentage of drug-free media)” value in data set [4] is given as “significantly more sensitive; also recorded: highly sensitive; also recorded: increased sensitivity”. Further, the irofulven sensitivity result in data set [5] is listed as “remains sensitive; also recorded: highly sensitive”.
